Publication PMC7397142, “Discovery of Novel Tankyrase Inhibitors through Molecular Docking-Based Virtual Screening and Molecular Dynamics Simulation Studies” (Molecules, 2020)
Where two headings read alike, the source gives them in different places.

Tests used:
tankyrase 2 (TNKS2) [1] = target: T1, tankyrase 2 (TNKS2) (Homo sapiens, UniProt Q9H2K2); assay: immunochemical dot-blot assay of PAR accumulation, […] NAD+; 4PL fit gave […]; type: biochemical
T1 construct: catalytic fragment (human, recombinant, residues 849–1166)
T1 sequence (Q9H2K2 849-1166): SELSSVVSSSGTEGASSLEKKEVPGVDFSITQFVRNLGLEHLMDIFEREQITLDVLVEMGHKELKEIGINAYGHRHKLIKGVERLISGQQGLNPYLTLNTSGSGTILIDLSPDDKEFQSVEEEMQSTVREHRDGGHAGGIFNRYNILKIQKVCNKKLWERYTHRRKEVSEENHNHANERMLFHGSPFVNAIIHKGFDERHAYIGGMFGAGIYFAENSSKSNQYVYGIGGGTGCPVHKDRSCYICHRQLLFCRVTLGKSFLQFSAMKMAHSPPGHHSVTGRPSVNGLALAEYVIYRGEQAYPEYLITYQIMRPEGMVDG

tankyrase 2 (TNKS2) [2] = target: T1, tankyrase 2 (TNKS2); assay: as above; type: biochemical; remark: listed apart in the source

| SMILES | IC50 (tankyrase 2 (TNKS2) [1]) | IC50 (tankyrase 2 (TNKS2) [2]) |
| --- | --- | --- |
| O=C(NCCNC(=O)c1cnccn1)c1ccc(-c2cc3ccccc3oc2=O)cc1 [A1] | < 0.01 µM |  |
| COc1ccc2oc(=O)c(-c3ccc(OCC(=O)NCc4cccnc4)cc3)cc2c1 [A3] |  | < 10 µM |
